Assay results published in patent publication US4036979A, “Compositions containing 4,5,6,7-tetrahydrobenz[b]thien-4-yl-ureas or derivatives and methods of enhancing growth rate” (American Cyanamid Company, priority 1976, dated 1977).

assay: Mouse Growth Regulant Tests (12-day weight gain over controls, compound in diet); format: in vivo, CFI female mice; conditions: Mus musculus, feed or water, 288 h, Table IX; 400 ppm in diet
Method: CFI female mice from Carworth Farms are received when they are six weeks old. They are housed ten to a cage in air-conditioned rooms (72° F. to 76° F.) with automatically controlled lights, 14 hours on and 10 hours off. The basal diet used in these studies is Purina Laboratory Chow (see description below), which is supplied ad libitum. Water is also allowed ad libitum.
Thirteen days after arrival, the mice are weighed in groups of ten and assigned at random to the different treatments. Twelve days later the mice are weighed again and the experiment terminated. At least three cages (30 mice) of untreated controls are included in each test. Test data are provided in Tables VI, VII, VIII, and IX below wherein data are reported as percent weight gain over controls. Unless otherwise indicated in these tables, all compounds tested were dl-racemic mixtures. The following is a description of the diet to which the growth promoting compounds were added.

SMILES | change in vivo at 400 ppm
NC(=O)NC1CCCC(=O)c2sccc21 (stereo not drawn) [5,6,7,8-tetrahydro-4H-8-oxocyclohepta[b]thien-4-ylurea] | 68.8%
COCNC(=O)NC1CCCCc2sccc21 (stereo not drawn) [Table IX: O,H,H,CH2OCH3, 1-(methoxymethyl)-3-(5,6,7,8-tetrahydro-4H-cyclohepta[b]thien-4-yl)urea] | 10%
CNC(=O)NC1CCCCc2sccc21 (stereo not drawn) [Table IX: O,H,H,CH3, 1-methyl-3-(5,6,7,8-tetrahydro-4H-cyclohepta[b]thien-4-yl)urea] | 41%
NC(=O)NC1CCCCc2sccc21 (stereo not drawn) [Table IX: O,H,H,H, 5,6,7,8-tetrahydro-4H-cyclohepta[b]thien-4-ylurea] | 54%
CCNC(=S)NC1CCCCc2sccc21 (stereo not drawn) [Table IX: S,H,H,C2H5, 1-ethyl-3-(5,6,7,8-tetrahydro-4H-cyclohepta[b]thien-4-yl)-2-thiourea] | 40%

same assay, conditions: Mus musculus, feed or water, 288 h, Table VI; 200 ppm in diet

SMILES | change in vivo at 200 ppm
O=C(NC(=O)C(Cl)(Cl)Cl)NC1CCCc2sccc21 (stereo not drawn) | 37.4%

same assay, conditions: Mus musculus, feed or water, 288 h, Table VI; 400 ppm in diet

SMILES | change in vivo at 400 ppm
O=C(NC1CCCc2sccc21)NC1CCCc2sccc21 (stereo not drawn) | 43%
S=C(NCCc1ccccn1)NC1CCCc2sccc21 (stereo not drawn) | 15%
S=C(NC1CC1)NC1CCCc2sccc21 (stereo not drawn) | 32%
O=C(NC1CCCc2ccccc21)NC1CCCc2sccc21 (stereo not drawn) | 4%
O=C(NC1CCc2ccccc21)NC1CCCc2sccc21 (stereo not drawn) | 8%
O=C(NC1CCCc2sccc21)N1CCC2(CC1)C(=O)NCN2c1ccccc1 (stereo not drawn) | 14%
O=C(Nc1ccc(Cl)cc1Cl)NC1CCCc2sccc21 (stereo not drawn) | 18%
O=C(NCNC(=O)NC1CCCc2sccc21)NC1CCCc2sccc21 (stereo not drawn) | 29%
COc1ccc(NC(=O)NC2CCCc3sccc32)cc1 (stereo not drawn) | 78%
O=C(NCc1cccs1)NC1CCCc2sccc21 (stereo not drawn) | 39%
O=C(NCc1cccnc1)NC1CCCc2sccc21 (stereo not drawn) | 48%
C[n+]1cccc(CNC(=O)NC2CCCc3sccc32)c1 (stereo not drawn) | 6%
O=C(Nc1ccc(Cl)cc1)NC1CCCc2sccc21 (stereo not drawn) | 21%
COc1ccc(CNC(=O)NC2CCCc3sccc32)cc1 (stereo not drawn) | 16%
O=C(NCc1ccccn1)NC1CCCc2sccc21 (stereo not drawn) | 41%
O=C(NCc1ccncc1)NC1CCCc2sccc21 (stereo not drawn) | 46%
O=C(NC1CCCc2sccc21)N1CCNCC1 (stereo not drawn) | 3%
O=C(NCc1ccc(Cl)cc1)NC1CCCc2sccc21 (stereo not drawn) | 1%
O=C(NC1CCCc2sccc21)N1CCCc2ccccc21 (stereo not drawn) | 4%
O=C(NC1CC1)NC1CCCc2sccc21 (stereo not drawn) | 31%
O=C(Nc1nccs1)NC1CCCc2sccc21 (stereo not drawn) | 11%
COc1ccc(N2CCN(C(=O)NC3CCCc4sccc43)CC2)cc1 (stereo not drawn) | 24%
O=C(NC1CCCc2sccc21)N1CCc2ccccc2C1 (stereo not drawn) | 7%
O=C(Nc1ccc([N+](=O)[O-])cc1)NC1CCCc2sccc21 (stereo not drawn) | 9%
CCOc1ccc(NC(=O)NC2CCCc3sccc32)cc1 (stereo not drawn) | 8%
CCCCOc1ccc(NC(=O)NC2CCCc3sccc32)cc1 (stereo not drawn) | 9%
O=C(NC1CCCc2sccc21)N(O)C1CCCCC1 (stereo not drawn) | 19%

SMILES | change in vivo at 400 ppm
CC(=O)NC(=O)NC1CCCc2sccc21 (stereo not drawn) | -1.4%
COc1ccc(OC)c(NC(=O)NC2CCCc3sccc32)c1 (stereo not drawn) | 32.4%
COc1cccc(NC(=O)NC2CCCc3sccc32)c1 (stereo not drawn) | 25%
COc1ccc(NC(=S)NC2CCCc3sccc32)cc1 (stereo not drawn) | -1.4%
O=C(NOc1ccccc1)NC1CCCc2sccc21 (stereo not drawn) | 90.6%
NC(=O)NC1CCCc2sccc21 (single isomer, unassigned; (-)) [Table VI: O,H,H,H,H,H (levorotatory enantiomorph), (-)-4,5,6,7-tetrahydrobenzo[b]-thien-4-ylurea] | 122%
CNC(=O)NC1(C)CCCc2sccc21 (stereo not drawn) [1-methyl-3-(4-methyl-4,5,6,7-tetrahydrobenzo[b]thien-4-yl)urea] | 39%
CNC(=O)NC1CCC(C)(C)c2sccc21 (stereo not drawn) [1-methyl-3-(7,7-dimethyl-4,5,6,7-tetrahydrobenzo-[b]thien-4-yl)urea] | 15%
NC(=O)NC1CCCc2sc(Br)cc21 (stereo not drawn) [Table VI: O,Br,H,H,H,H, 2-bromo-4,5,6,7-tetrahydrobenzo[b]-thien-4-ylurea] | 76.3%
CCC(C)NC(=O)NC1CCCc2sc(C)c(C)c21 (stereo not drawn) [Table VI: O,CH3,CH3,H,2-butyl,H] | 3%
Cc1sc2c(c1C)C(NC(N)=O)CCC2 (stereo not drawn) [Table VI: O,CH3,CH3,H,H,H] | 0%
CCC(C)NC(=O)NC1CCCc2sc(C)cc21 (stereo not drawn) [Table VI: O,CH3,H,H,2-butyl,H] | 2%
NC(=O)NC1CCCc2sc(Cl)cc21 (stereo not drawn) [Table VI: O,Cl,H,H,H,H, 2-chloro-4,5,6,7-tetrahydrobenzo[b]thien-4-ylurea] | 4.8%
Cc1csc2c1C(NC(N)=O)CCC2 (stereo not drawn) [Table VI: O,H,CH3,H,H,H, 3-methyl-4,5,6,7-tetrahydrobenzo[b]thien-4-ylurea] | 26%
CCCCCCNC(=O)NC1CCCc2scc(C)c21 (stereo not drawn) [Table VI: O,H,CH3,H,H,n-hexyl] | 21%
CN(C(N)=O)C1CCCc2sccc21 (stereo not drawn) [Table VI: O,H,H,CH3,H, 1-methyl-1-(4,5,6,7-tetrahydrobenzo[b]-thien-4-yl)urea] | 27.2%
C#CCN(Cc1ccccc1)C(=O)NC1CCCc2sccc21 (stereo not drawn) [Table VI: O,H,H,H,CH2C6H5,CH2CCH] | 30%
O=C(NC1CCCc2sccc21)N(O)Cc1ccccc1 (stereo not drawn) [Table VI: O,H,H,H,CH2C6H5,OH] | 12%
C#CCN(CC#C)C(=O)NC1CCCc2sccc21 (stereo not drawn) [Table VI: O,H,H,H,CH2CCH,CH2CCH] | 27%
O=C(NC1CCCc2sccc21)N1CCCC1 (stereo not drawn) [Table VI: O,H,H,H,CH2CH2CH2CH2] | 18%
O=C(NC1CCCc2sccc21)N1CCOCC1 (stereo not drawn) [Table VI: O,H,H,H,CH2CH2OCH2CH2, N-(4,5,6,7-tetrahydrobenzo[b]thien-4-yl)-4-morpholinecarboxamide] | 9.9%
C=CCN(CC=C)C(=O)NC1CCCc2sccc21 (stereo not drawn) [Table VI: O,H,H,H,CH2CHCH2,CH2CHCH2] | 4%
CN(Cc1ccccc1)C(=O)NC1CCCc2sccc21 (stereo not drawn) [Table VI: O,H,H,H,CH3,CH2C6H5] | 14%
C#CCN(C)C(=O)NC1CCCc2sccc21 (stereo not drawn) [Table VI: O,H,H,H,CH3,CH2CCH] | 29%
CN(C)C(=O)NC1CCCc2sccc21 (stereo not drawn) [Table VI: O,H,H,H,CH3,CH3, 1,1-dimethyl-3-(4,5,6,7-tetrahydrobenzo[b]thien-4-yl)urea] | 55.1%
CON(C)C(=O)NC1CCCc2sccc21 (stereo not drawn) [Table VI: O,H,H,H,CH3,OCH3, 1-methoxy-1-methyl-3-(4,5,6,7-tetrahydrobenzo[b]thien-4-yl)urea] | 107%
CN(O)C(=O)NC1CCCc2sccc21 (stereo not drawn) [Table VI: O,H,H,H,CH3,OH, 1-hydroxy-1-methyl-3-(4,5,6,7-tetrahydrobenzo[b]thien-4-yl)urea] | 49.6%

same assay, conditions: Mus musculus, feed or water, 288 h, Table VII; 25 ppm in diet

SMILES | change in vivo at 25 ppm
NC(=O)NC1CCC(=O)c2sccc21 (single isomer, unassigned; (-)) [Table VII: O,H,H (levorotatory enantiomorph), (-)-4,5,6,7-tetrahydro-7-oxobenzo[b]thien-4-ylurea] | 119%

same assay, conditions: Mus musculus, feed or water, 288 h, Table VII; 200 ppm in diet

SMILES | change in vivo at 200 ppm
NC(=O)NC1CCC(=O)c2sccc21 (single isomer, unassigned; (+)) [Table VII: O,H,H (dextrorotatory enantiomorph), (+)-4,5,6,7-tetrahydro-7-oxobenzo[b]thien-4-ylurea] | 9.4%

same assay, conditions: Mus musculus, feed or water, 288 h, Table VII; 400 ppm in diet

SMILES | change in vivo at 400 ppm
O=C(NC(=O)C(Cl)(Cl)Cl)NC1CCC(=O)c2sccc21 (stereo not drawn) | 62.2%
NC(=O)NC1CCC(=O)c2sc(Br)cc21 (stereo not drawn) [2-bromo-4,5,6,7-tetrahydro-7-oxobenzo[b]thien-4-ylurea] | 35.9%

same assay, conditions: Mus musculus, feed or water, 288 h, Table VIII; 50 ppm in diet

SMILES | change in vivo at 50 ppm
NC(=O)NC1CCC(O)c2sccc21 (single isomer, unassigned; (+)) [Table VIII: O,H,H (dextrorotatory diastereomer, 95% isomer B), (+)-4,5,6,7-tetrahydro-7-hydroxybenzo[b]thien-4-ylurea] | -11.3%

same assay, conditions: Mus musculus, feed or water, 288 h, Table VIII; 200 ppm in diet

SMILES | change in vivo at 200 ppm
NC(=O)NC1CCC(O)c2sccc21 (mixture of isomers) [Table VIII: O,H,H (mixture of dextrorotatory diastereomers, 62% isomer B)] | 13.5%

same assay, conditions: Table VIII; 25 ppm in diet

SMILES | & Weight Gain Over Controls
NC(=O)NC1CCC(O)c2sccc21 (single isomer, unassigned; (+)) [Table VIII: O,H,H (dextrorotatory diastereomer, 90% isomer A), (+)-4,5,6,7-tetrahydro-7-hydroxybenzo[b]thien-4-ylurea] | 3.7%
NC(=O)NC1CCC(O)c2sccc21 (single isomer, unassigned; (-)) [Table VIII: O,H,H (levorotatory diastereomer, 86% isomer A)] | 54.4%
NC(=O)NC1CCC(O)c2sccc21 (single isomer, unassigned; (-)) [Table VIII: O,H,H (levorotatory diastereomer, 91.5% isomer B)] | 74.5%
